Where two headings read alike, the source gives them in different places.
Experiments:
[1] = In vitro microsomal stability, rat; type: in vitro ADME; conditions: for Microsomal stability, % remaining: Rat microsomes; for microsomal stability (in words) / % of compound remaining when incubated in rat liver microsomes with NADPH: rat liver microsomes
[2] = In vitro microsomal stability, human; type: in vitro ADME; conditions: for Microsomal stability, % remaining: Human microsomes; for microsomal stability (in words) / % of compound remaining when incubated in human liver microsomes with NADPH: human liver microsomes
[3] = In vitro microsomal stability, dog; type: in vitro ADME; conditions: for Microsomal stability, % remaining: Dog microsomes
[4] = Microsomal stability study, negative control incubation; type: in vitro ADME
[5] = biological target: recombinant human His-tagged MDM2 protein (residues 1-118) (Homo sapiens (Human), UniProt Q00987); assay: Fluorescence-polarization MDM2 binding assay; conditions: for IC50: Table 19A, FP binding assay, read-out: MDM2 IC50;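 as to all read-outs here: fluorescence polarization read after three hours of incubation in potassium phosphate buffer containing bovine gamma globulin and Triton X-100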
[6] = test system: Isogenic HCT-116 colon cancer cell lines; assay: cells; type: cell-based;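 also: cells grown in 96-well plates in McCoy's 5A medium with 10% FBS, exposed to compound for 4 days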
Experimental: Cells were seeded in 96-well flat bottom cell culture plates at a density of 2−3×10^3 cells/well with compounds and incubated for 4 days.

[7] = test system: cancer cell lines with wild-type p53 / mutated or deleted p53 (ATCC); assay: Cell growth assay (WST-8), other cancer cell lines; type: cell-based
[8] = test system: SJSA-1 xenograft tumors; assay: In vivo efficacy, SJSA-1 xenograft model (tumor volume); parameters: species or system C.B-17 SCID mice; conditions: PO 100 mg/kg; for % Tumor Growth Inhib. T/C Control 750 mm^3 D27: Exp. No. 1, SJSA-1 xenograft; for % Tumor Growth Inhib. T/C Control 750 mm^3 D24: Exp. No. 2, SJSA-1 xenograft
Experimental: SJSA-1 tumor cells were harvested with Trypsin (0.05%)-EDTA (0.53 mM) (GIBCO™, Invitrogen Corp.), growth medium added and cells placed on ice. A cell sample was mixed 1:1 with Trypan Blue (GIBCO™, Invitrogen Corp.) and counted on a hemocytometer to determine the number of live/dead cells. Cells were washed once with 1×PBS (GIBCO™, Invitrogen Corp.) and resuspended in PBS. For Matrigel injections, after washing in PBS, cells are resuspended in an ice cold mixture of 1:1 PBS and Matrigel (BD Biosciences, Invitrogen Corp.) for a final Matrigel protein concentration of 5 mg/ml. SJSA-1 tumors were inoculated into C.B-17 SCID mice at 5×10^6 cells in 0.1 ml with Matrigel. Cells were injected s.c. into the flank region of each mouse using a 27 gauge needle.
The size of tumors growing in the mice was measured in two dimensions using calipers. Tumor volume (mm^3)=(A×B2)/2 where A and B are the tumor length and width (in mm), respectively. During treatment, tumor volume and body weight was measured three times a week. […] Mice were kept for an additional 60 days for further observation of tumor growth and toxicity.
Mice with tumors within acceptable size range were randomized into treatment groups of 8 mice for experimental compounds and 10 mice for the Control group. Experimental compounds were given orally, once per day for 2-3 weeks.

[9] = Pharmacokinetic studies in rats; type: in vivo, rat; conditions: for oral bioavailability / oral pharmacokinetics in rats (in words): oral dosing
Experimental: Pharmacokinetic studies on MDM2 inhibitors were carried out in rat. For comparison, the MDM2 inhibitor, AT-219, was also studied.

[10] = Homo sapiens, HCT-116, read-out: HCT-116 (p53-/-) IC50, Table 19A, HCT-116 p53-/-, cell growth
[11] = Homo sapiens, HCT-116, read-out: HCT-116 (p53 wild-type) IC50, Table 19A, HCT-116 p53 wild-type, cell growth
[12] = Homo sapiens, LNCaP, Table 19A, LNCAP cells, p53 wild-type, cell growth, read-out: LNCAP (p53 wild-type) IC50
[13] = Homo sapiens, PC-3, Table 19A, PC-3 cells, deleted p53, cell growth, read-out: PC-3 (deleted p53) IC50
[14] = Homo sapiens, SJSA-1, Table 19A, SJSA-1 cells, p53 wild-type, cell growth, read-out: SJSA-1 (p53 wild-type) IC50
[15] = Homo sapiens, HCT-116, read-out: HCT-116 (p53-/-) IC50
[16] = Homo sapiens, HCT-116, read-out: HCT-116 (p53 wild-type) IC50
[17] = Homo sapiens, LNCaP, read-out: LNCAP (p53 wild-type) IC50
[18] = Homo sapiens, PC-3, read-out: PC-3 (deleted p53) IC50
[19] = Homo sapiens, SJSA-1, read-out: SJSA-1 (p53 wild-type) IC50
[20] = rat, IV, 5 mg/kg, plasma, parent compound

Chain of recombinant human His-tagged MDM2 protein (residues 1-118) (Q00987 1-118): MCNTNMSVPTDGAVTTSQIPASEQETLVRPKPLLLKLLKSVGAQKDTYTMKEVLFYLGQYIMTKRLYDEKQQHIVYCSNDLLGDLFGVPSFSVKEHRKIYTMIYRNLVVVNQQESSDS

CC(C)(C)C[C@H]1N[C@@H](C(=O)NCC[C@H](O)CO)[C@H](c2ccc(F)c(Cl)c2)[C@@]12C(=O)Nc1cc(Cl)c(F)cc12 [MI-319, reference compound]
Microsomal stability, % remaining ([1]; 0 min): 100.00% | Microsomal stability, % remaining ([1]; 5 min): 64.80% | Microsomal stability, % remaining ([1]; 10 min): 41.96% | Microsomal stability, % remaining ([1]; 15 min): 30.71% | Microsomal stability, % remaining ([1]; 30 min): 23.11% | Microsomal stability, % remaining ([1]; 45 min): 23.01% | Microsomal stability, % remaining ([1]; 60 min): 24.01% | microsomal stability (in words) [1]: metabolized fairly rapidly | Microsomal stability, % remaining ([2]; 0 min): 100.00% | Microsomal stability, % remaining ([2]; 5 min): 82.09% | Microsomal stability, % remaining ([2]; 10 min): 60.88% | Microsomal stability, % remaining ([2]; 15 min): 43.86% | Microsomal stability, % remaining ([2]; 30 min): 24.79% | Microsomal stability, % remaining ([2]; 45 min): 10.66% | Microsomal stability, % remaining ([2]; 60 min): 16.31% | microsomal stability (in words) [2]: metabolized fairly rapidly | Microsomal stability, % remaining ([3]; 0 min): 100.00% | Microsomal stability, % remaining ([3]; 5 min): 108.25% | Microsomal stability, % remaining ([3]; 10 min): 69.29% | Microsomal stability, % remaining ([3]; 15 min): 57.20% | Microsomal stability, % remaining ([3]; 30 min): 41.84% | Microsomal stability, % remaining ([3]; 45 min): 29.39% | Microsomal stability, % remaining ([3]; 60 min): 27.06% | microsomal stability (in words) ([3]; dog microsomes): metabolized fairly rapidly | Microsomal stability, % remaining ([4]; 0 min): 100.00% | Microsomal stability, % remaining ([4]; 5 min): 95.37% | Microsomal stability, % remaining ([4]; 10 min): 90.75% | Microsomal stability, % remaining ([4]; 15 min): 96.26% | Microsomal stability, % remaining ([4]; 30 min): 86.12% | Microsomal stability, % remaining ([4]; 45 min): 91.41% | Microsomal stability, % remaining ([4]; 60 min): 85.90%

CC(C)(C)C[C@H]1N[C@@H](C(=O)NCCN2CCN(S(C)(=O)=O)CC2)[C@H](c2cccc(Cl)c2F)[C@@]12C(=O)Nc1cc(Cl)ccc12 [MI-519-49]
IC50 [5]: < 1 µM | IC50 [6, 10]: 12.7 µM | IC50 [6, 11]: 0.84 µM | IC50 [7, 12]: 0.85 µM | IC50 [7, 13]: 8.1 µM | % Tumor Growth Inhib. T/C Control 750 mm^3 D27 [8]: 63.8%

CC(C)(C)C[C@H]1N[C@@H](C(N)=O)[C@H](c2cccc(Cl)c2F)[C@@]12C(=O)Nc1cc(Cl)ccc12 [MI-519-50]
IC50 [5]: < 1 µM | IC50 [6, 10]: 23.7 µM | IC50 [6, 11]: 0.9 ± 0.2 µM | IC50 [7, 12]: 1.3 ± 0.4 µM | IC50 [7, 13]: 16.9 ± 4.5 µM | IC50 [7, 14]: 1.7 ± 1.7 µM | % Tumor Growth Inhib. T/C Control 750 mm^3 D27 [8]: 41.1%

CC(C)(C)C[C@H]1N[C@@H](C(=O)N[C@H]2CC[C@@H](O)C2)[C@H](c2cccc(Cl)c2F)[C@@]12C(=O)Nc1cc(Cl)ccc12 [MI-519-51]
IC50 [6, 15]: 13.4 ± 0.8 µM | IC50 [6, 16]: 0.6 ± 0.3 µM | IC50 [7, 17]: 0.6 ± 0.2 µM | IC50 [7, 18]: 8.2 ± 2.5 µM | IC50 [7, 19]: 0.6 ± 0.2 µM | microsomal stability (in words) [1]: inferior stability to MI-219 | % of compound remaining when incubated in rat liver microsomes with NADPH ([1]; 0 min): 100.00% | % of compound remaining when incubated in rat liver microsomes with NADPH ([1]; 5 min): 12.77% | % of compound remaining when incubated in rat liver microsomes with NADPH ([1]; 10 min): 2.84% | % of compound remaining when incubated in rat liver microsomes with NADPH ([1]; 15 min): 0.83% | % of compound remaining when incubated in rat liver microsomes with NADPH ([1]; 30 min): 0.00% | % of compound remaining when incubated in rat liver microsomes with NADPH ([1]; 45 min): 0.00% | % of compound remaining when incubated in rat liver microsomes with NADPH ([1]; 60 min): 0.00% | half-life ([1]; rat, liver microsomes, rat liver microsomes with NADPH): 2.18 min | microsomal stability (in words) [2]: inferior stability to MI-219 | % of compound remaining when incubated in human liver microsomes with NADPH ([2]; 0 min): 100.00% | % of compound remaining when incubated in human liver microsomes with NADPH ([2]; 5 min): 36.05% | % of compound remaining when incubated in human liver microsomes with NADPH ([2]; 10 min): 9.88% | % of compound remaining when incubated in human liver microsomes with NADPH ([2]; 15 min): 3.95% | % of compound remaining when incubated in human liver microsomes with NADPH ([2]; 30 min): 0.00% | % of compound remaining when incubated in human liver microsomes with NADPH ([2]; 45 min): 0.00% | % of compound remaining when incubated in human liver microsomes with NADPH ([2]; 60 min): 0.00% | half-life ([2]; human, liver microsomes, human liver microsomes with NADPH): 3.15 min | CLz [9, 20]: 75 mL/min/kg | Vd ([9]; rat, plasma, iv, 5 mg/kg, rat, IV, 5 mg/kg, plasma, parent compound, read-out: Vz): 7.5 L/kg | pharmacokinetic profile (in words) ([9]; rats, intravenous and oral routes of dosing): inferior overall PK parameters to MI-219 | % Tumor Growth Inhib. T/C Control 750 mm^3 D27 [8]: 34.0%

CC(C)(C)C[C@H]1N[C@@H](C(=O)NCC(C)(C)O)[C@H](c2cccc(Cl)c2F)[C@@]12C(=O)Nc1cc(Cl)ccc12 [MI-519-62]
IC50 [6, 15]: > 10 µM | IC50 [6, 16]: < 3 µM | IC50 [7, 17]: < 3 µM | IC50 [7, 18]: > 10 µM | IC50 [7, 19]: < 3 µM | % Tumor Growth Inhib. T/C Control 750 mm^3 D24 [8]: 59.5%

CC(C)(C)C[C@H]1N[C@@H](C(=O)NC2CCC(NS(C)(=O)=O)CC2)[C@H](c2cccc(Cl)c2F)[C@@]12C(=O)Nc1cc(Cl)ccc12 (some centres unmarked) [MI-772]
IC50 [5]: < 1 µM | binding to MDM2 (in words) ([5]; human MDM2 protein): high affinities | IC50 ([6]; read-out: HCT-116 (p53-/-) IC50, Table 19A, HCT-116 p53-/-, cell growth): > 5 µM | IC50 ([6]; read-out: HCT-116 (p53 wild-type) IC50, Table 19A, HCT-116 p53 wild-type, cell growth): < 1 µM | relative potency vs epimer, binding and cellular studies (in words) [7]: several times more potent than MI-771 | IC50 ([7]; Table 19A, LNCAP cells, p53 wild-type, cell growth, read-out: LNCAP (p53 wild-type) IC50): < 1 µM | IC50 ([7]; Table 19A, PC-3 cells, deleted p53, cell growth, read-out: PC-3 (deleted p53) IC50): > 5 µM | IC50 ([7]; Table 19A, SJSA-1 cells, p53 wild-type, cell growth, read-out: SJSA-1 (p53 wild-type) IC50): < 1 µM | cell growth inhibition (in words) ([7]; cancer cell lines with wild-type p53): effectively inhibit cell growth | microsomal stability (in words) [1]: very stable | t1/2 ([1]; rat liver microsomes with NADPH): >60 min | % of compound remaining when incubated in rat liver microsomes with NADPH ([1]; 0 min): 100.00% | % of compound remaining when incubated in rat liver microsomes with NADPH ([1]; 5 min): 93.46% | % of compound remaining when incubated in rat liver microsomes with NADPH ([1]; 10 min): 91.15% | % of compound remaining when incubated in rat liver microsomes with NADPH ([1]; 15 min): 89.04% | % of compound remaining when incubated in rat liver microsomes with NADPH ([1]; 30 min): 88.27% | % of compound remaining when incubated in rat liver microsomes with NADPH ([1]; 45 min): 78.65% | % of compound remaining when incubated in rat liver microsomes with NADPH ([1]; 60 min): 75.96% | microsomal stability (in words) [2]: very stable | t1/2 ([2]; human liver microsomes with NADPH): >60 min | % of compound remaining when incubated in human liver microsomes with NADPH ([2]; 0 min): 100.00% | % of compound remaining when incubated in human liver microsomes with NADPH ([2]; 5 min): 95.37% | % of compound remaining when incubated in human liver microsomes with NADPH ([2]; 10 min): 86.87% | % of compound remaining when incubated in human liver microsomes with NADPH ([2]; 15 min): 82.24% | % of compound remaining when incubated in human liver microsomes with NADPH ([2]; 30 min): 77.91% | % of compound remaining when incubated in human liver microsomes with NADPH ([2]; 45 min): 63.28% | % of compound remaining when incubated in human liver microsomes with NADPH ([2]; 60 min): 56.87% | oral bioavailability / oral pharmacokinetics in rats (in words) ([9]; rats): modest oral bioavailability | CLz [9, 20]: 16.7 mL/min/kg | Vz [9, 20]: 10.9 L/kg | half-life in rats (in words) ([9]; rats, intravenous and oral): long plasma half-life | % Tumor Growth Inhib. T/C Control 750 mm^3 D24 [8]: 71.1%

C[C@H](N)C(=O)OC1CCC(NC(=O)[C@@H]2N[C@H](CC(C)(C)C)[C@]3(C(=O)Nc4cc(Cl)ccc43)[C@H]2c2cccc(Cl)c2F)CC1 (some centres unmarked) [MI-774]
IC50 [5]: < 0.1 µM | IC50 [6, 10]: 5.6 µM | IC50 [6, 11]: 0.3 ± 0.1 µM | IC50 [7, 12]: 0.3 µM | IC50 [7, 14]: 0.3 ± 0.1 µM | oral bioavailability / oral pharmacokinetics in rats (in words) ([9]; rats): good oral bioavailability | % Tumor Growth Inhib. T/C Control 750 mm^3 D24 [8]: 21.4%

CC(C)(C)C[C@H]1N[C@@H](C(=O)NC2CCN(S(C)(=O)=O)CC2)[C@H](c2cccc(Cl)c2F)[C@@]12C(=O)Nc1cc(Cl)ccc12 [MI-779]
IC50 [5]: < 0.1 µM | IC50 [6, 10]: 13.6 µM | IC50 [6, 11]: 2.5 µM | IC50 [7, 12]: 1.3 µM | IC50 [7, 13]: 11.6 µM | IC50 [7, 14]: 1 µM | % Tumor Growth Inhib. T/C Control 750 mm^3 D24 [8]: 66.1%

CCNC(=O)N1CCC(NC(=O)[C@@H]2N[C@H](CC(C)(C)C)[C@]3(C(=O)Nc4cc(Cl)ccc43)[C@H]2c2cccc(Cl)c2F)CC1 [MI-781]
IC50 [5]: < 0.1 µM | IC50 [6, 10]: 10.1 µM | IC50 [6, 11]: 0.4 µM | IC50 [7, 14]: 0.7 µM | % Tumor Growth Inhib. T/C Control 750 mm^3 D24 [8]: 75.5%

From patent publication US9079913B2, “Spiro-oxindole MDM2 antagonists” (The Regents of the University of Michigan, priority 2009, dated 2015)
